The results in this text go back to article PMC9605374 (Marine Drugs, 2022).

For one assay, the system named is 22Rv1 cells. Briefly: Trypan blue exclusion assay. Format: cell-based. Particulars: Homo sapiens, 22Rv1, trypan blue exclusion. How it is done:
Figure 2 Trypan blue exclusion assay. 22Rv1 cells were treated for 48 h (A) or 168 h (B) with the indicated concentrations of NB. The cells were harvested, stained, and counted with an automatic Vi-CELL cell counter device. Number of replicates n = 3.
The trypan blue exclusion assay was used to monitor the effect of the drugs on cell viability regarding cellular membrane integrity and was performed as described before. In brief, cells (2 × 10^5 cells/well) were seeded in 6-well plates (1 mL/well) and incubated overnight. Next, the media was substituted with fresh media (1 mL/well) containing drugs at indicated concentrations. Cells were treated for 48 h, harvested by trypsination, and stained with trypan blue. The automatic Beckman Coulter Vi-CELL (Beckman Coulter, Krefeld, Germany) was used to count trypan blue-positive and -negative cells. Trypan blue-negative cells were postulated to have an intact cellular membrane (i.e., alive cells), whereas trypan blue-positive cells were assumed to have damaged cellular membrane (i.e., dead cells).

The subject of the next assay is LC3B-I/II in 22Rv1 cells. Briefly: Western blotting, autophagy marker. Format: cell-based, human. The method, then: (§1) We examined several time points, specifically, 15 min, 2 h, and 48 h (Figure 6).
(§2) Figure 6 Validation of kinome analysis data. 22Rv1 cells were treated with 1 µM or 10 µM of NB for the indicated time. The protein expression was analyzed by Western blotting using total protein load equal to 30 µg/slot. α-Tubulin was used as a loading control.
(§3) The Western blot assay was executed as previously described: 1 × 10^6 cells were seeded in Petri dishes (ø 6 cm, 5 mL/dish) and incubated overnight. On the next day, the cells were treated with the compounds in fresh culture media (5 mL/dish) for the indicated time. Next, cells were harvested with a cell scraper and lysed in lysis buffer including protease and phosphatase inhibitors cocktail (Roche, Mannheim, Germany). Cell debris were removed from the protein lysates via centrifugation. Afterwards, the cell-free protein mixtures were separated in gradient ready-made Mini-PROTEAN® TGX Stain-Free^TM gels (Bio-Rad, Hercules, CA, USA) using SDS-PAGE (sodium dodecylsulfate polyacrylamide gel electrophoresis). Then, the proteins were blotted onto ø 0.2 µm pore PVDF membrane. The membrane was blocked and consequently treated with primary and secondary antibodies for protein detection. The signals were detected using the ECL chemiluminescence system (Thermo Scientific, Rockford, IL, USA).

The test system of another assay is caspase-3 in 22Rv1 cells. Briefly: Western blotting, caspase-3 cleavage. Format: cell-based, human. The following applies: 22Rv1, 48 h after drug exposure. The method, then:
as §1, §2, §3

The subject of assay [1] is caspase-3 in PC3-DR cells. Briefly: Western blotting, caspase-3 cleavage. Particulars: 48 h. Format: cell-based, human. How it is done:
Number of replicates n = 3. […] Viability was measured using an MTT assay. Number of replicates n = 3.
It is important to note that a reduction in p-gp activity could be conditioned by p-gp degradation or cell death-related processes. Consequently, using a Western blotting analysis, we measured p-gp expressional levels in the treated PC3-DR cells. […] Thus, the observed effect on p-gp activity seems to be exclusively related to the interaction of NB with p-gp rather than result from any cell death-related events.
as §3, with “The membrane was blocked and consequently treated with primary and secondary antibodies for protein detection.” left out

The next assay has as its system prostate cancer cells. Briefly: MTT assay, mean IC50 in cancer cell panel and selectivity index. Format: cell-based, human. The source says: To examine the anticancer potential and selectivity of NB, we used a panel of six human prostate cancer cell lines, harboring different levels of treatment resistance to representatively reflect the heterogeneity of the disease. […] Additionally, four human noncancer cells lines were utilized in order to determine the selectivity of NB towards prostate cancer cells, i.e., prostate noncancer PNT2 and RWPE-1 cells, human embryonic kidney HEK 293T cells, and human fibroblasts MRC-9. The different cell lines were treated with NB and the cell viability was examined using MTT assay (Figure 1). The mean IC50 of NB and docetaxel (used as a reference substance) in noncancerous cell lines was divided by the mean IC50 in the prostate cancer cell lines to determine the selectivity index (SI).
The MTT assay was used to monitor the effect of the drugs on cell viability in terms of metabolic activity, as previously reported. First, preincubation of the cells in 96-well plates (6 × 10^3 cells/well in 100 μL/well) was performed overnight in the correspondent culture medium. Next, the medium was exchanged for fresh medium containing the investigated compounds or a vehicle (100 μL/well). Cells were then incubated for 48 h, unless otherwise stated. Then, 10 μL/well of 3-(4,5-dimethylthiazol-2-yl)-2,5-diphenyltetrazolium bromide reagent (MTT, 5 mg/mL) were added. After 2–4 h of additional incubation the media was removed, and the plates were dried. Finally, 50 μL/well of DMSO were added to solve the formed formazan crystals produced by the metabolic active cells and Infinite F200PRO reader (TECAN, Männedorf, Switzerland) was used to measure the cell viability. The results were proceeded with a GraphPad Prism software v.9.1.1 (GraphPad Software, San Diego, CA, USA). Cells treated with the solvent of the drugs alone were used as a control (100% alive cells). The effect of the drugs on cell viability is represented as IC50.

The subject of a further assay is PC3-DR cells. Put plainly: Drug combination study NB with docetaxel, MTT assay, SynergyFinder 2.0. Particulars: Homo sapiens, 24 h. Format: cell-based. How it is done: Thus, drug-resistant PC3-DR cells were treated with docetaxel in combination with NB (Figure 9). Potential synergism between NB and docetaxel was measured by the Chou–Talalay method as described before.
Figure 9 Combinational treatment on PC3-DR cells with NB and docetaxel. […] MTT assay was used to examine cellular viability. Number of replicates n = 3. (A) The heatmap represents cytotoxicity (viability inhibition) of the individual drugs or their combinations. (B,C) To calculate and visualize in 2D (B) or 3D (C) the effect of the drug combination (synergism/additive effect/antagonism), the SynergyFinder v. 2.0 software (Network Pharmacology for Precision Medicine in the Research Program of System Oncology, Faculty of Medicine at University of Helsinki, Helsinki, Finland) and a ZIP reference model were used. Green regions indicate antagonism, white regions refer to additive effect, and red regions indicate synergism.
The experiments were carried out as previously reported. […] 22Rv1 cells (6 × 10^3 cells/well in 96-well plates) were simultaneously treated with NB and docetaxel; or pretreated with MAPK inhibitors for 1 h following treatment with NB in the total media volume of 100 µL/well. Following 24 h of incubation, the viability of the cells treated with individual drugs as well as their combinations was determined using MTT assay. […] Red areas (positive δ-values) and green areas (negative δ-values) indicate synergism and antagonism, respectively.

In the case of `COc1ccc(C2SSC34CC5(O)C(Cl)C=CC(O)C5ON3C(=O)C2N(C)C4=O)c(O)c1OC` (centres unmarked) [NB, N-methylpretrichodermamide B], it took 129 ± 62 nM to reach half-maximal inhibition in the assay with 22Rv1 cells (48 h) (IC50). Further, in the assay on 22Rv1 cells (168 h), inhibition was half-maximal at 276 ± 58 nM (IC50). Besides, the “effect on autophagy (LC3B-I/II expression)” value with LC3B-I/II in 22Rv1 cells is reported as “no significant effect on autophagy”. For the same compound, the caspase-3 cleavage entry with caspase-3 in 22Rv1 cells is listed as “caspase-3 cleavage that was observed”. In addition, the “concentration at which cleavage of caspase-3 was detected” value in assay [1] amounted to 6 µM. In addition, the IC50 in the assay on prostate cancer cells (Homo sapiens, mean over PC3, PC3-DR, DU145, 22Rv1, VCaP, LNCaP, 48 h, MTT) is 6460 nM. Moreover, the “Selectivity Index (SI)” value in the assay with prostate cancer cells ([mean IC50 in noncancer cells]/[mean IC50 in cancer cells]) was 2.4. In the assay on PC3-DR cells, the inhibition at 0.22 µM was determined as 9.85%, the inhibition at 0.67 µM amounted to 15.5%, the inhibition at 2 µM was 14.3% and the inhibition at 6 µM was determined as 17.2%.
